The subject of data set [1] is Mycobacterium tuberculosis. Nature of the data set: Antitubercular activity against Mycobacterium tuberculosis H37Rv measured after 1 week by microplate alamar blue assay. It counts as functional. To be noted: 168 h.
The test system of data set [2] is HEK-293T. Nature of the data set: Cytotoxicity against HEK293T cells after 48 hrs by MTT assay. It counts as cell-based. The conditions noted are these: human. For orientation: Formazan colour is commonly taken as a measure of viable cells.
The nature of data set [3]: Protective index, ratio of MNTD50 for HEK293T cells to MIC for Mycobacterium tuberculosis H37Rv.

Converted amounts (≈) assume the structure as drawn.

One may read the MIC as the least concentration at which growth counts as inhibited. A lower MIC goes with inhibition by little substance. `FC(F)(F)c1ccc(Cn2cc(C3=C(Cl)c4ccc(-c5cccs5)nc4CC3)nn2)cc1` registered a minimum inhibitory concentration (MIC) in data set [1] of 6.25 µg/mL (≈ 13.2 µM). In data set [2], this compound gave an MNTD50 of 86 µg/mL. In data set [3], the Ratio came out at 13.76.

In data set [1], `O=[N+]([O-])c1ccc(Cn2cc(C3=C(Cl)c4ccc(-c5cccs5)nc4CC3)nn2)cc1` yielded a minimum inhibitory concentration (MIC) of 12.5 µg/mL (≈ 27.8 µM). Moreover, the MNTD50 in data set [2] was 69 µg/mL. The Ratio in data set [3] stood at 5.52.

In turn, `COc1cc(Cn2cc(C3=C(Cl)c4ccc(-c5cccs5)nc4CC3)nn2)cc(OC)c1OC` yielded a minimum inhibitory concentration (MIC) in data set [1] of 12.5 µg/mL (≈ 25.3 µM). Also, the MNTD50 in data set [2] is 74 µg/mL. Moreover, the Ratio in data set [3] is 5.92.

In the case of `ClC1=C(c2cn(Cc3ccc(Br)cc3)nn2)CCc2nc(-c3cccs3)ccc21`, the MIC in data set [1] was determined as 3.12 µg/mL (≈ 6.45 µM). Also, the MNTD50 in data set [2] came to 88 µg/mL. Also, the Ratio in data set [3] was found to be 28.02.

The compound `CCc1ccc(Cn2cc(C3=C(Cl)c4ccc(-c5cccs5)nc4CC3)nn2)cc1` had a minimum inhibitory concentration (MIC) in data set [1] of 25 µg/mL (≈ 57.7 µM).

`COc1cccc(Cn2cc(C3=C(Cl)c4ccc(-c5cccs5)nc4CC3)nn2)c1` registered an MIC in data set [1] of 3.12 µg/mL (≈ 7.17 µM). The MNTD50 in data set [2] was 98 µg/mL. In addition, the Ratio in data set [3] is listed as 31.4.

For the compound `ClC1=C(c2cn(Cc3ccc(Cl)c(Cl)c3)nn2)CCc2nc(-c3cccs3)ccc21`, in data set [1], 25 µg/mL (≈ 52.8 µM) was the least that counted as inhibitory (MIC).

In data set [1], `N#CC1=C(Cl)c2ccc(-c3cccs3)nc2CC1` returned a minimum inhibitory concentration (MIC) of 25 µg/mL (≈ 91.7 µM).

Compound `Cc1ccc(Cn2cc(C3=C(Cl)c4ccc(-c5cccs5)nc4CC3)nn2)cc1` displayed a minimum inhibitory concentration (MIC) in data set [1] of 25 µg/mL (≈ 59.7 µM).

`COc1ccc(Cn2cc(C3=C(Cl)c4ccc(-c5cccs5)nc4CC3)nn2)cc1` yielded a minimal inhibitory concentration (MIC) in data set [1] of 25 µg/mL (≈ 57.5 µM).

Regarding `Fc1ccc(Cn2cc(C3=C(Cl)c4ccc(-c5cccs5)nc4CC3)nn2)cc1`, the lowest concentration to inhibit growth in data set [1] (MIC) was 25 µg/mL (≈ 59.1 µM).

`Cc1cc(C)c(Cn2cc(C3=C(Cl)c4ccc(-c5cccs5)nc4CC3)nn2)c(C)c1` registered a minimal inhibitory concentration (MIC) in data set [1] of 25 µg/mL (≈ 55.9 µM).

`ClC1=C(c2cn(Cc3cccc(Br)c3)nn2)CCc2nc(-c3cccs3)ccc21` displayed an MIC in data set [1] of 25 µg/mL (≈ 51.7 µM).

The compound `ClC1=C(c2cn(Cc3ccccc3)nn2)CCc2nc(-c3cccs3)ccc21` showed an MIC in data set [1] of 1.56 µg/mL (≈ 3.85 µM). Further, the MNTD50 in data set [2] came out at 112 µg/mL. In data set [3], the Ratio came out at 71.7.

As for `Fc1ccc(Cn2cc(C3=C(Cl)c4ccc(-c5cccs5)nc4CC3)nn2)c(Cl)c1`, the minimal inhibitory concentration (MIC) in data set [1] came to 25 µg/mL (≈ 54.7 µM).

On to `Fc1cc(Br)ccc1Cn1cc(C2=C(Cl)c3ccc(-c4cccs4)nc3CC2)nn1`, for which inhibition of growth in data set [1] (MIC) required 25 µg/mL (≈ 49.8 µM).

The compound `O=C(O)c1cn(C2CC2)c2cc(N3CCNCC3)c(F)cc2c1=O` [CIPROFLOXACIN] registered an MIC in data set [1] of 1.56 µg/mL (≈ 4.71 µM). Against the preceding compound, the MIC is about 16-fold lower.

For the compound `CC[C@@H](CO)NCCN[C@@H](CC)CO` [ETHAMBUTOL], inhibition of growth in data set [1] (MIC) required 3.13 µg/mL (≈ 15.3 µM).

In data set [1], `NNC(=O)c1ccncc1` [ISONIAZID] came in with an MIC of 0.1 µg/mL (≈ 0.729 µM). Further, the MNTD50 in data set [2] stood at 32 µg/mL.

In data set [1], `CO[C@H]1/C=C/O[C@@]2(C)Oc3c(C)c(O)c4c(O)c(c(/C=N/N5CCN(C)CC5)c(O)c4c3C2=O)NC(=O)/C(C)=C\C=C\[C@H](C)[C@H](O)[C@@H](C)[C@@H](O)[C@@H](C)[C@H](OC(C)=O)[C@@H]1C` [RIFAMPIN] came in with an MIC of 0.2 µg/mL (≈ 0.243 µM).

The values above are taken from ChEMBL document CHEMBL4330141, “Synthesis and evaluation of novel substituted 1,2,3-triazolyldihydroquinolines as promising antitubercular agents” (Bioorg Med Chem Lett, 2019).
